Source: patent US12037419B2 (The Feinstein Institutes for Medical Research, priority 2016, dated 2024)

Legend:
[1] = target: T1, LAIR-1 and RAGE in lipid rafts (Homo sapiens, UniProt Q15109+Q6GTX8); assay: Lipid raft fractionation and Western blot; format: cell-based; settings: in the presence of HMGB1 and C1q
T1 construct: endogenous in cells; host or cells: monocytes
Experimental: Lipid raft fractionation: Lipid rafts were prepared as described (50). Monocytes (5×10^6) were lysed in 1 ml THE buffer (25 mM Tris, 150 mM NaCl, 5 mM EDTA) containing 1% Triton and incubated for 30 min on ice. Lysates were homogenized with 10 strokes of a dounce homogenizer, mixed with 2 ml of 80% sucrose in TNE buffer, and transferred to a centrifuge tube. Samples were overlaid with 4 ml of 30% sucrose and 2 ml of 5% sucrose in TNE. After centrifugation for 16 h at 180,000 g in a Beckman Coulter SW41Ti rotor, 0.8 ml fractions were collected from the top of the gradient. Each fraction was subjected to slot blot analysis to identify GM1-enriched rafts fraction using FITC-conjugated cholera toxin-B subunit (Sigma). Lipid raft fractions were precipitated with TCA and washed with 70% EtOH, then subjected to slot blot analysis or Western blot.

[2] = test system: allogeneic primary human CD4 T cells; assay: Allogeneic mixed lymphocyte reaction; format: cell-based; settings: HMGB1 3 μg/ml, C1q 25 μg/ml
Experimental: Allogeneic CD4 T lymphocytes were isolated from blood using the Naïve CD4+ T cell isolation kit II (Miltenyi Biotec.) following the manufacturer's protocol. Cells were analyzed by flow cytometry (>90%). T cells were labeled with 5 μM Cell Trace Violet cell proliferation kit (Thermo Fisher Scientific), added to mono/macrophages at a density of 2×10^5 cells/well (a 1:2 ratio) in the presence of 1 μg/ml anti-CD3 (OKT3, eBioscience). Control cultures contained medium only or T cells or mono/macrophages alone. After 4 days, cells were stained with FITC-anti-CD4, PerCPCy 5.5-CD14, PE-LAIR-1 and fixable viability dyes (FVD, eBioscience) for 20 min at room temperature and subsequently washed and fixed. Live cells (FVD-negative cells) were then gated on CD4-positive, and cell trace violet was assessed by flow cytometry on a BD LSR II (BD Biosciences). Cell proliferation was analyzed as described (51). The % divided cells was defined as the probability that a cell has divided at least once from the original population. The division index was defined as the average number of cell divisions that a cell in the original population has undergone.

RAGE = target: T2, RAGE (Homo sapiens, UniProt Q15109); assay: SPR assay of C1q and RAGE binding; settings: read-out: KD of C1q and RAGE binding, 25° C., 1:1 binding ratio supposed
T2 construct: purchased R&D Systems
T2 sequence (Q15109 23-342 limits assumed): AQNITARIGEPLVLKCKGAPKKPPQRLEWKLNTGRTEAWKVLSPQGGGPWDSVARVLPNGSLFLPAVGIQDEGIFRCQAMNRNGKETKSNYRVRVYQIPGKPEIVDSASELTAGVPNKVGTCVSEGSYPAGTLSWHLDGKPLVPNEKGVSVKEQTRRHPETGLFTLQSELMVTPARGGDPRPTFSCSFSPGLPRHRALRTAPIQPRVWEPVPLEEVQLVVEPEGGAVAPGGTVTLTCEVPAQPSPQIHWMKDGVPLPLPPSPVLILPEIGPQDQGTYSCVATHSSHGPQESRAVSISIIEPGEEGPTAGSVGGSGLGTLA
Experimental: Surface Plasmon Resonance analysis (SPR): For real-time binding interaction studies, a BIAcore T200 instrument (GE Healthcare) was used. […] A 1:1 mixture of N-hydroxysuccinimide and N-ethyl-N-(dimethyaminopropyl) carbodiimide was used to activate 2 flow-cells of the CMS chip. […] The analytes were diluted in 1×PBS+0.01% (vol/vol) tween-20 buffer. The analytes were sequentially injected at a flow rate of 30 μl/min for 60 s at 25° C. The KD was dertermined using the BIAcore evaluation software 2.0 (GE Healthcare) supposing a 1:1 binding ratio.

human monocytes = assay: Internalization of FITC-labeled HMGB1 or CpG by monocytes (immunofluorescence microscopy); format: cell-based
Experimental: Immunofluorescence Microscopy: In situ proximal ligation assay was performed according to manufacturer's protocol (Duolink, Sigma). Following stimulation, human monocytes were washed three times with ice-cold PBS and were fixed with 4% (wt/vol) PFA for 1 hour at room temperature, seeded (2×10^5 cells) on slides using cytospin (Shandon), permeablized with chilled MeOH for 4 min and with PBS/0.1% (vol/vol) Triton X-100 and blocked for 1 h at room temperature. Cells were then incubated overnight with a primary antibody pair directed to rabbit anti-RAGE (ab3611, Abcam) and to mouse anti-LAIR-1 (BD Bioscience), respectively. The cells were incubated with corresponding PLA probes conjugated to oligonucleotides (mouse MINUS and rabbit PLUS), then followed by ligation and rolling circle amplification in close proximity. Images were acquired using AxioVision software and a confocal microscope (Olympus). Quantification was performed using Zen2 (Zeiss). […] Cells were washed three times with cold-PBS and fixed with 4% PFA and stained with PECy5-anti-human CD14 antibody (BD biosciences) or propidium iodide (PI). […] PI or DAPI was used for nuclear staining. […] After washing, cells were stained with Alexa Fluor 594 anti-rabbit IgG (Life Technologies), and mounted DAPI-containing medium. […]

T1 sequence (Q6GTX8 22-287): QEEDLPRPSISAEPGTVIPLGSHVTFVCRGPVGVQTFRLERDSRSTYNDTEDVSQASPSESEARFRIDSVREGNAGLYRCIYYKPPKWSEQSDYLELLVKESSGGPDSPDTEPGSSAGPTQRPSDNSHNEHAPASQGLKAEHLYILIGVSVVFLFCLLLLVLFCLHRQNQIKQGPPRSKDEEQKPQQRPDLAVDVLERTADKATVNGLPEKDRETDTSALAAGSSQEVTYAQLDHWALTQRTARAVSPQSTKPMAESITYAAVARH
T1 sequence (Q15109 23-404): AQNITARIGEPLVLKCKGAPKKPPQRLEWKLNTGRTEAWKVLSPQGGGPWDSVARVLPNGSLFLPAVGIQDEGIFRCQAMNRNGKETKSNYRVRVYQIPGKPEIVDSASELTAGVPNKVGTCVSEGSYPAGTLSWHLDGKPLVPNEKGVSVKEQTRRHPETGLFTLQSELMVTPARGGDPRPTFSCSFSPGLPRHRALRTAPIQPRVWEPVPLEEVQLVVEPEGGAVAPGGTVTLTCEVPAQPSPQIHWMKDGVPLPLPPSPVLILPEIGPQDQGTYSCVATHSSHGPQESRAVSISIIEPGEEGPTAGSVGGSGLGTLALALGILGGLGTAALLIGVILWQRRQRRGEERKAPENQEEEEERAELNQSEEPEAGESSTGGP

“C1q: C1q purified from pooled normal human sera, obtained from Complement Technology” was tested, and the “localization of LAIR-1 and RAGE in lipid rafts” value [1] was “LAIR-1 migrated to lipid rafts where LAIR-1 colocalized with RAGE”, the “stimulation of T cells by monocytes exposed to both HMGB1 and C1q” value [2] was “poor stimulators of T cells” and the Kd (RAGE) was 0.855 µM. The “internalization of FITC-labeled CpG oligonucleotides” value (human monocytes; 15 min) was “significantly reduced cellular internalization” and the “cytosolic FITC-HMGB1 (internalization)” value (human monocytes; FITC-HMGB1 3 μg/ml, C1q 25 μg ml-1, 15 min, 37° C.) was “significantly decreased”.
